Reference: patent US20230416199A1, “INHIBITORS OF AMINO ACID TRANSPORT” (ICAHN SCHOOL OF MEDICINE AT MOUNT SINAI, priority 2020, published 2023)
Like-named read-outs stand apart in the source and are kept apart here.

Columns and labels:
Type in all cases: cell-based
[1] = biological target: T1, hASCT2 (Homo sapiens, UniProt Q15758); experiment: Competition experiment with alanine, hASCT2; conditions: first entry of the cell; for Ki: read-out: Competition Expt (h/rASCT2 Ki): hASCT2 Ki
T1 construct: expressed in transfected cells; host or cells: HEK293 (ATCC CRL-11268), transient transfection
T1 sequence (Q15758 1-541): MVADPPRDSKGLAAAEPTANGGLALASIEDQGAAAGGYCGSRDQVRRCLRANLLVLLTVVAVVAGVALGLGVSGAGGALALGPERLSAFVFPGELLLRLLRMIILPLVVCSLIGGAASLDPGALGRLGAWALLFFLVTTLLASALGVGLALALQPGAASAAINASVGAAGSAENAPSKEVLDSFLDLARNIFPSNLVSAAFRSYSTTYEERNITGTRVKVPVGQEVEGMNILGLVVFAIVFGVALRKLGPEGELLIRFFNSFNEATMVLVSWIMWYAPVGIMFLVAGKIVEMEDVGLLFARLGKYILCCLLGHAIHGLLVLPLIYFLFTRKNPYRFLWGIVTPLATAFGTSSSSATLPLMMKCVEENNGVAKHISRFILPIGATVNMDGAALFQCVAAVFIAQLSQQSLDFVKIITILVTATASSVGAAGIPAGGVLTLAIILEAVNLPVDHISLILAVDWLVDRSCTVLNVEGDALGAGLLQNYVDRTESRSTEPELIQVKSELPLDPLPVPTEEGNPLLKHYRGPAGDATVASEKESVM

[2] = biological target: T2, rASCT2 (Rattus norvegicus, UniProt D3ZJ25); experiment: Competition experiment with alanine, rASCT2; conditions: second entry of the cell; for Ki: read-out: Competition Expt (h/rASCT2 Ki): rASCT2 Ki
T2 construct: expressed in transfected cells; host or cells: HEK293 (ATCC CRL-11268), transient transfection
T2 sequence (D3ZJ25 1-555): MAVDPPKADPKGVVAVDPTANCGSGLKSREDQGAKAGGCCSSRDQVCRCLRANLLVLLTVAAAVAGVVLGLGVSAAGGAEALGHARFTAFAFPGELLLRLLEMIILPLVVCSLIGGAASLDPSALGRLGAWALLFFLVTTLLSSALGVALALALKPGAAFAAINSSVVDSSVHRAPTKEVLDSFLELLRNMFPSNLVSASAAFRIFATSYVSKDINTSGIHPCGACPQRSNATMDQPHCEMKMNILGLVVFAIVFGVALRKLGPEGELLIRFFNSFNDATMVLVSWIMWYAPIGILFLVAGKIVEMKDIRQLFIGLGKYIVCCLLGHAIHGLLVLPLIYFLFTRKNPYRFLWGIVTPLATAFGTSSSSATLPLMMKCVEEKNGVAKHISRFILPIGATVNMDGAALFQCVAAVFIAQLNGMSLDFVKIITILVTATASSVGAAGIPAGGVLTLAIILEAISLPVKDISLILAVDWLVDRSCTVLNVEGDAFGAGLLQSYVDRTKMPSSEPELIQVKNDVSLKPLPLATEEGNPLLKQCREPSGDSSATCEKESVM

[3] = biological target: T3, hASCT1 (Homo sapiens, UniProt P43007); experiment: Electrophysiology (whole-cell current recording) of transfected HEK293 cells, hASCT1
T3 construct: expressed in transfected cells; host or cells: HEK293 (ATCC CRL-11268), transient transfection
T3 sequence (P43007 1-532): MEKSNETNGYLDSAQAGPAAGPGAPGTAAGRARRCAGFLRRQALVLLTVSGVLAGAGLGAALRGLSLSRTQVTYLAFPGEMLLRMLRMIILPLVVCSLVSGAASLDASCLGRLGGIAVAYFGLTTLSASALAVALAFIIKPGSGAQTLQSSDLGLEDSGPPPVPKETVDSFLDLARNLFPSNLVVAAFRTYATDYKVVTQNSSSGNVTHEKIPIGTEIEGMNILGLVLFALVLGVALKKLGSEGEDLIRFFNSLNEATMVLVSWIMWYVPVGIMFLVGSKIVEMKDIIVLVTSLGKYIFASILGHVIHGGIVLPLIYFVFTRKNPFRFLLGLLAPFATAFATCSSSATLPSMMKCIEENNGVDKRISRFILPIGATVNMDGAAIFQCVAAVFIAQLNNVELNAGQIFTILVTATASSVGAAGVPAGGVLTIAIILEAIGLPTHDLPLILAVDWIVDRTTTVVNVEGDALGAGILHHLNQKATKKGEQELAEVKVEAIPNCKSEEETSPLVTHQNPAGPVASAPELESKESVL
Method: (§1) Human embryonic kidney 293 (HEK293, ATCC CRL-11268) cells were cultured in DMEM media supplemented with 10% (v v) fetal bovine serum (FBS), 2 mM glutamine, 1% penicillin streptomycin solution, 1 mM sodium pyruvate and non-essential amino acids. Cells were maintained at 37° C. in a fully humidified atmosphere containing 5% CO2. rASCT2, hASCT2, hASCT1, EAAT1, EAAT2, EAAC1, EAAT5 and YFP complementary DNAs were each used to transiently transfect HEK293 using POLYPLUS Jet-prime transfection reagent. Cells were analyzed using electrophysiological techniques 24-40 hours after transfection.
(§2) Stock solutions of inhibitor was prepared in dimethyl sulfoxide (DMSO) up to 100 mM. Dilutions to working concentrations were made using external buffer. […] For rASCT2, hASCT2 and hASCT1, external buffer contained 140 mM NaCl, 2 mM MgCl2, 2 mM CaCl2), and 10 mM HEPES, pH 7.40 while internal pipette solution comprised of 130 mM NaSCN, 2 mM MgCl2, 10 mM EGTA, 10 mM HEPES and 10 mM alanine, pH 7.40. For specificity experiments with EAAT1, EAAT2, EAAC1 and EAAT5, internal solution contained 10 mM glutamate instead of alanine. Compounds were applied to HEK293 cells expressing DNA of interest suspended from a current recording electrode in whole cell configuration through a rapid solution exchange device. Cells are immersed in external buffer bath used to dissolve the inhibitors. The open pipette resistance was between 3 and 6 MΩ. Series resistance was not compensated in these experiments due to relatively small currents. Currents traces were recorded using an Adams and List EPC7 amplifier and digitized using a Molecular Devices Digidata A/D converter.
(§3) Linear and nonlinear curve fitting of the experimental data were analyzed using MicroCal Origin software. Nonlinear dose-response relationships were fitted with a Michaelis-Menten-like equation to obtain apparent Ki values in the absence of substrate (see TABLE 2 for Ki values). The figures show representative current traces and dose-response curves for hACST2 and rASCT2, used to obtain Ki values in TABLE 2 for compound SN 40. At least four experiments were performed with at least three different cells. Error bars in all graphs, e.g., in FIG. 1B and FIG. 1C and tables (Ki values) represent mean±SD.

[4] = biological target: T1, hASCT2; experiment: Electrophysiology (whole-cell current recording) of transfected HEK293 cells, hASCT2
Method: as §1, §2, §3

[5] = biological target: T2, rASCT2; experiment: Electrophysiology (whole-cell current recording) of transfected HEK293 cells, rASCT2
Method: as §1, §2, §3

[6] = biological target: T4, EAAT5 (Homo sapiens, UniProt O00341); experiment: Electrophysiology specificity experiment in transfected HEK293 cells, EAAT5; conditions: apparent Ki, HEK293, internal solution 10 mM glutamate, mean ± SD
T4 construct: expressed in transfected cells; host or cells: HEK293 (ATCC CRL-11268), transient transfection
Method: as §1, §2, §3

[7] = biological target: T5, EAAT1 (Homo sapiens, UniProt P43003); experiment: Electrophysiology specificity experiment in transfected HEK293 cells, EAAT1; conditions: apparent Ki, HEK293, internal solution 10 mM glutamate, mean ± SD
T5 construct: expressed in transfected cells; host or cells: HEK293 (ATCC CRL-11268), transient transfection
Method: as §1, §2, §3

[8] = biological target: T6, EAAT2 (Homo sapiens, UniProt P43004); experiment: Electrophysiology specificity experiment in transfected HEK293 cells, EAAT2; conditions: apparent Ki, HEK293, internal solution 10 mM glutamate, mean ± SD; read-out: Ki EAAT2
T6 construct: expressed in transfected cells; host or cells: HEK293 (ATCC CRL-11268), transient transfection
Method: as §1, §2, §3

[9] = Table 3, dihydroxyproline derivatives, read-out: Ki All DNA: hASCT1
[10] = Table 3, dihydroxyproline derivatives
[11] = Table 3, dihydroxyproline derivatives, read-out: Ki All DNA: hASCT2

T6 sequence (P43004 whole entry, species assumed): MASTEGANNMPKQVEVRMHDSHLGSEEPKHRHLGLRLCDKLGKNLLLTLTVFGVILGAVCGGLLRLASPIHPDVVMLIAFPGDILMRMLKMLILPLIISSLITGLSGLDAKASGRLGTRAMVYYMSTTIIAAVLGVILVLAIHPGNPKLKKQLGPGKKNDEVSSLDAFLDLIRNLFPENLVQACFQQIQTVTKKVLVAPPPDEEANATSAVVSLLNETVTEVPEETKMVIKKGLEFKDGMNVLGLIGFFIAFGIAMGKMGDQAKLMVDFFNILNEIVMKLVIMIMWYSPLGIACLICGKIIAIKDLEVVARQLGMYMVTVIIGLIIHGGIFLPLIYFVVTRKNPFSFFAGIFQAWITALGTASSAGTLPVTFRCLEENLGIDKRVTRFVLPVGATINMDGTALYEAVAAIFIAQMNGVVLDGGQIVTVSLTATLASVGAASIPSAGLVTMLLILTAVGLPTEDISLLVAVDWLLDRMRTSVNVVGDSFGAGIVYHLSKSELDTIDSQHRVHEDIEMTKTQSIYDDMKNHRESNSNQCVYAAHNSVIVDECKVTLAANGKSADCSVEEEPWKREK
T5 sequence (P43003 whole entry, species assumed): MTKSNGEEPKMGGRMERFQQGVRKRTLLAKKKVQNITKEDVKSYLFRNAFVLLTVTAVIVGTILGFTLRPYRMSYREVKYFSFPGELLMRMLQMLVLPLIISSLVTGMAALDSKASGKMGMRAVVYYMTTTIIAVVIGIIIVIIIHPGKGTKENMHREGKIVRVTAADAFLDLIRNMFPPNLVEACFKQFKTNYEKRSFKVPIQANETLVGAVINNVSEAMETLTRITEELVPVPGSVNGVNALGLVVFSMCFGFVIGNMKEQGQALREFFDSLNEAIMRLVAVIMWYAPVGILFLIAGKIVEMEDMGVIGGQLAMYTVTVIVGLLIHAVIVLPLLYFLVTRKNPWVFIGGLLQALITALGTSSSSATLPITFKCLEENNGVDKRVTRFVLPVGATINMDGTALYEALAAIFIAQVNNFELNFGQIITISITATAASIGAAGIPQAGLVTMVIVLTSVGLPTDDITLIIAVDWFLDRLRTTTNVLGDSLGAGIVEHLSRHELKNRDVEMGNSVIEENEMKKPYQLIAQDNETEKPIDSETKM
T4 sequence (O00341 whole entry, species assumed): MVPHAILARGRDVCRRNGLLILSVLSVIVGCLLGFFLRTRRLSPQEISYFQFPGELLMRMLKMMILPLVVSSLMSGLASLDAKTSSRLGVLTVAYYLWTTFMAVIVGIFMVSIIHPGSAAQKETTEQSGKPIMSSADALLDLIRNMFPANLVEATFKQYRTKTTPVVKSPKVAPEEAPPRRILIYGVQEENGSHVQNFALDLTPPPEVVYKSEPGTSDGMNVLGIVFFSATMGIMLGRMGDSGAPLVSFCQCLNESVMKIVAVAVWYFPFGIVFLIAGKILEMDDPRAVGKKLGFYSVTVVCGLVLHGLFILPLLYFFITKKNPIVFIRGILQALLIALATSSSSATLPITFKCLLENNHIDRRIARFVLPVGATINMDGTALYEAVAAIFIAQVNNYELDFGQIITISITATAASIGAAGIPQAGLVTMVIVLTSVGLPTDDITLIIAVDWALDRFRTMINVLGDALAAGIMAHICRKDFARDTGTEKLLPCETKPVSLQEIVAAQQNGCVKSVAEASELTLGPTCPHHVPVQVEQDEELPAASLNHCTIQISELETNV

Competition Expt % block (given as a decimal): hASCT2 ([1]; 1 mM ala) | Ki ([1]; 1 mM ala) [µM] | Competition Expt % block (given as a decimal): rASCT2 ([2]; 1 mM ala) | Ki ([2]; 1 mM ala) [µM] | Ki [3, 9] [µM] | Ki [4, 11] [µM] | Competition Expt % block (given as a decimal): hASCT2 ([1]; 0.5 mM ala, decimal fraction) | Competition Expt % block (given as a decimal): rASCT2 ([2]; 0.5 mM ala, decimal fraction) | Compound | other results
full | 19.2 | full | 12.8 | 3.06 |  |  |  | O=C(OC[C@@]1(O)CN[C@H](C(=O)O)C1)c1ccc(-c2ccc(F)cc2)cc1 [SN58] | Ki All DNA: hASCT2 [4, 10]: Very Low; Ki All DNA: rASCT2 [5, 10]: Very Low
full | 19.4 | full | 0.15 | 0.002 | 3.24 |  |  | O=C(OC[C@@]1(O)CN[C@H](C(=O)O)C1)c1ccc(-c2ccc(C(F)(F)F)cc2)cc1 [SN59] | Ki ([5]; Table 3, dihydroxyproline derivatives, read-out: Ki All DNA: rASCT2): 0.005 µM
 |  |  |  |  |  |  |  | O=C(O[C@@H]1CN[C@H](C(=O)O)C1)c1ccc(C(=O)c2ccccc2)cc1 [SN 12] | Ki ([3]; apparent Ki in the absence of substrate, HEK293, mean ± SD, read-out: Ki hASCT1): 6.86 ± 1.1 µM; Ki [6]: 13.8 ± 2.7 µM; Ki [7]: 21.2 ± 4.5 µM; Ki ([4]; apparent Ki in the absence of substrate, HEK293, mean ± SD, read-out: Ki hASCT2): 21.4 ± 3.2 µM; Ki ([5]; apparent Ki in the absence of substrate, HEK293, mean ± SD, read-out: Ki rASCT2): 6.66 ± 1.2 µM; Ki [8]: 15.4 ± 4.9 µM
 |  |  |  |  | 115 | 0 | 0 | O=C(OC[C@]1(O)CN[C@H](C(=O)O)C1)c1ccc(-c2ccc(C(F)(F)F)cc2)cc1 [SN67] | Ki All DNA: hASCT1 [3, 10]: NA, NC
 |  |  |  |  |  | 0.5 | 0.5 | O=C(O[C@@]1(CO)CN[C@H](C(=O)O)C1)c1ccc(-c2ccccc2)cc1 [SN77] | Ki ([1]; 0.5 mM ala): 20.3 µM; Ki ([2]; 0.5 mM ala): 12.9 µM
